These results are taken from patent US7838207B2, “Surrogate cell-based system and method for assaying the activity of hepatitis C virus NS3 protease” (Boehringer Ingelheim Canada Ltd., priority 1999, dated 2010).

This assay relates to tetracycline transactivator (tTA). Kind of assay: Tetracycline internal control: luciferase assay in 293 cells co-transfected with chimera G and pUHC13-3 reporter. The format is cell-based. The note with it: in the presence of tetracycline (over 2,000,000 cps in its absence). From the text: Expression of the luciferase reporter gene is controlled by NS3 processing of a tetracycline responsive transcriptional trans-activator. Luciferase assay performed on extracts of 293 cells co-transfected with construct G or H, or the positive control tTA-producing plasmid (pUHD15-1), and the pUHC13-3 plasmid containing the luciferase reporter. Closed and open bars indicate the absence and presence of tetracycline, respectively. Note that construct G produces a tetracycline controlled signal; inactivation of the NS3 protease activity (in construct H) abolishes this signal.
The three families (clones A, D, and G) of HCV-tTA chimeras, and their active site and cleavage site mutant variants, were each co-transfected with the pUHC13-3 reporter into 293 cells to determine the extent of NS3-dependent luciferase expression (FIG. 6). Cells in 35 mm wells were co-transfected with each of the constructs described in FIGS. 2A to 2I and the pUHC13-3 reporter plasmid using the calcium phosphate method. The cells were harvested 48 hours post-transfection and washed twice in phosphate buffered saline. […] An aliquot of 10 μl of supernatant was mixed with 50 μl of the luciferase assay reagent (Promega) in a 96 well plate and the amount of light produced measured using a Digene luminometer or Packard top-count scintillation counter. […]

`CN(C)[C@@H]1C(O)=C(C(N)=O)C(=O)[C@@]2(O)C(O)=C3C(=O)c4c(O)cccc4[C@@](C)(O)[C@H]3C[C@@H]12` [tetracycline]: the Luciferase activity is on record as 40000 cps.
